Tests used:
[1] = system: stress-induced analgesia in rats; experiment: non-opioid stress-induced analgesia: foot shock, then tail-flick test; format: in vivo, rat
[2] = system: organotypic slice cultures of rat forebrain; experiment: endocannabinoid content by LC/MS in organotypic brain slice cultures; format: cell-based; conditions: URB602 100 μM; for anandamide levels: URB597 1 μM
Procedure: Brain slice cultures. Brain slices were cultured from Wistar rats. Pups were sacrificed on post-natal day 5 by decapitation following cryo-anaesthesia. Brains were removed and cut (0.4 mm-thick coronal slices) using a vibratome in a bath of ice-cold high-glucose Dulbecco's Modified Eagle's Medium (Gibco). Hemispheres were placed on Millicell culture inserts (Millipore) in 6-well plates with serum-based culture medium (1.5 ml) composed of basal Eagle medium with Earle's salts (100 ml), Earle's balanced salt solution (50 ml), heat-inactivated horse serum (50 ml), L-glutamine (0.2 mM, 1 ml) and 50% glucose (2 ml) (Gibco). Slices were maintained at 37° C. with 5% CO2 for 7 days before use.
(§1) Lipid extractions and LC/MS analyses. Ex vivo experiments. Rats were habituated to the guillotine for at least 7 days prior to the experiment and sacrificed them either before or various times (2, 7, 15 and 25 min) after a 3-min foot shock (n=10 per group). The brains were rapidly removed, dissected and stored frozen (−80° C.) until lipid extraction. In vitro experiments. […] In some experiments, slices were incubated with ionomycin (2 μM) in DMEM for additional 15 min. Reactions were stopped and washed with ice-cold 50% methanol (1 ml). Slices were collected in the same medium (0.2 ml) and homogenized. Brain tissue (≈50 mg) and slice homogenates were suspended in methanol (2 ml) containing [^2H]-containing internal standards (25 pmol). Lipids were extracted in methanol-chloroform-H2O (1:2:0.25). The organic phase was recovered, evaporated to dryness, reconstituted in chloroform/methanol (1:3, 80 μL) and subjected to LC/MS analysis as described (Giuffrida, A. et al., Anal. Biochem. 280:87-93 (2000)).

[3] = system: tail-flick latencies in rats; experiment: tail-flick test without stressor: basal thresholds, agonist antinociception; format: in vivo, rat; conditions: for basal nociceptive threshold (tail-flick latencies) in absence of stressor: same doses and routes as in stress analgesia tests; for drug's own antinociceptive effects after repeated daily injections: prior to foot shock, WIN55,212-2 14 days, morphine 7 days
native rat brain MGL = biological target: T1, native rat brain MGL (Rattus norvegicus, UniProt Q8R431); experiment: MGL activity assay, rat brain cytosol, 2-monooleoylglycerol substrate; format: biochemical; conditions: for effect on rat brain MGL activity in vitro: FIG. 3b
T1 construct: from tissue; host or cells: Wistar rat brain, cytosol fraction
T1 sequence (Q8R431 1-303): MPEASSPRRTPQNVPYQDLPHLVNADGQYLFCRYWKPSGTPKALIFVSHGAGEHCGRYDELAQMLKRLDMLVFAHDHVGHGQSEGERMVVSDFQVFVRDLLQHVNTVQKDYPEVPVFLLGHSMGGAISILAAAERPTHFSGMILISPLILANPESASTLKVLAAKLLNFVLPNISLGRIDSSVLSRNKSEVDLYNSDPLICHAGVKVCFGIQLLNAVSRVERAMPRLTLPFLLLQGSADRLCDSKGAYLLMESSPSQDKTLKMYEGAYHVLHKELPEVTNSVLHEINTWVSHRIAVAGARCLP

cyclooxygenase (Cox)-2 = biological target: T2, cyclooxygenase (Cox)-2 (Homo sapiens, UniProt P35354); experiment: cyclooxygenase assay, commercial kit with purified enzymes; format: biochemical
T2 construct: purchased Cayman Chemicals, Ann Arbor, Mich
T2 sequence (P35354 18-604): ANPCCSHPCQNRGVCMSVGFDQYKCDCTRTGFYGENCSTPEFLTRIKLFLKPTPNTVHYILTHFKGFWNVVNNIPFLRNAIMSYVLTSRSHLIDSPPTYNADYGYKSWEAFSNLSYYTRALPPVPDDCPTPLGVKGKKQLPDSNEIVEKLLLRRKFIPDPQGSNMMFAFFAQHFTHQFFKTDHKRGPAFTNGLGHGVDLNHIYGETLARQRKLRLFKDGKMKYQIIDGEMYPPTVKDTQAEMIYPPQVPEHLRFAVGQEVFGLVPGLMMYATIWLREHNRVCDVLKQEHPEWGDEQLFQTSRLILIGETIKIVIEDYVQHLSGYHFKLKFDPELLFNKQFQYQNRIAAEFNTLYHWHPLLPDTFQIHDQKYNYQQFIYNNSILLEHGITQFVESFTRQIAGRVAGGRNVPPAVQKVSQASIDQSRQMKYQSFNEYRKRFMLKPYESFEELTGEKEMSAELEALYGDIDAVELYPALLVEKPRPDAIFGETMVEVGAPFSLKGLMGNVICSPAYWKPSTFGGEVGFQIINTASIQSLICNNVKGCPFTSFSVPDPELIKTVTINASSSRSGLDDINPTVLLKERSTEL

[4] = system: diacylglycerol lipase (DGL); experiment: DGL activity assay, rat brain protein, [3H]dioleoylglycerol; format: biochemical
PLD = experiment: phospholipase D activity assay; format: biochemical, S. chromofuscus
rat brain FAAH = biological target: T3, rat brain FAAH (Rattus norvegicus, UniProt P97612); experiment: FAAH activity assay, rat brain membranes, anandamide substrate; format: biochemical; conditions: FIG. 3c
T3 construct: from tissue; host or cells: Wistar rat brain, membrane fraction
T3 sequence (P97612 1-579): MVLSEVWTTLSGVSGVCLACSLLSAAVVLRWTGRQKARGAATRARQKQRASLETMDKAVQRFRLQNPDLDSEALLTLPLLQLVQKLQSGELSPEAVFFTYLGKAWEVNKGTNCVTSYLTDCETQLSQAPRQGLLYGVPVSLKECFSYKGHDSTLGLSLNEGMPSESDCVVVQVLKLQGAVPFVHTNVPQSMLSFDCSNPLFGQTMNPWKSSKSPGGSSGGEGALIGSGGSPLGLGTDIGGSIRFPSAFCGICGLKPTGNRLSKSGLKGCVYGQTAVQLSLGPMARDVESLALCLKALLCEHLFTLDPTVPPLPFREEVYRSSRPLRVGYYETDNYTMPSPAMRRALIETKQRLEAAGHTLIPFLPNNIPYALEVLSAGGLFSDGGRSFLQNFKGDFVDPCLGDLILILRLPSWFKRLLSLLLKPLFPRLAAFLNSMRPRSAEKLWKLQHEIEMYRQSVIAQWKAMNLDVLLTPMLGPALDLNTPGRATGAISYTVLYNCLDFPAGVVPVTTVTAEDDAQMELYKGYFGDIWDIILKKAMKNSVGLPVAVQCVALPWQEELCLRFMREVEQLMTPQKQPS

rat cerebellar membranes = experiment: [35S]-GTP-γ-S binding to rat cerebellar membranes; format: biochemical; conditions: data not shown; read-out: half-maximal effective concentration (EC50), [35S]-GTP-γ-S binding
phospholipase C (PLC) = phospholipase C (PLC) (Bacillus cereus, UniProt P09598); experiment: phospholipase C activity assay; format: biochemical, B. cereus
Chain of phospholipase C (PLC) (P09598 39-283 limits assumed): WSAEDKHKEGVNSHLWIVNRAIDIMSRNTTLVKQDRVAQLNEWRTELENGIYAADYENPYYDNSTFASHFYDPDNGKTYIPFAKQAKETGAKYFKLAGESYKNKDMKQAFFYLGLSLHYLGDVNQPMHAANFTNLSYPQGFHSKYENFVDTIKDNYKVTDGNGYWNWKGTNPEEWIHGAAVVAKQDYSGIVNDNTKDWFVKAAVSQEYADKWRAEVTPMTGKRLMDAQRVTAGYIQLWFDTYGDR

[5] = system: 2-AG and anandamide levels in rat brain; experiment: ex vivo brain endocannabinoid levels by LC/MS after PAG microinjection and foot shock; format: in vivo
Procedure: as §1

[6] = URB602 0.1 nmol in PAG, 25 min after shock

Cc1c(C(=O)NN2CCCCC2)nn(-c2ccc(Cl)cc2Cl)c1-c1ccc(I)cc1 [AM251]
effect of antagonist on stress-induced analgesia, systemic ([1]; rat, in vivo, ip): almost abolished

NC(=O)c1cccc(-c2cccc(OC(=O)NC3CCCCC3)c2)c1 [URB597]
anandamide levels [2]: markedly elevated
effect on stress-induced analgesia, URB597 in dorsolateral PAG ([1]; rat, in vivo): significant potentiation
effect on stress-induced analgesia, URB597 systemic ([1]; rat, in vivo, ip): significant potentiation
basal nociceptive threshold (tail-flick latencies) in absence of stressor [3]: did not modify
effect on rat brain MGL activity in vitro (native rat brain MGL): no effect

O=C(Nc1cccc(-c2ccccc2)c1)OC1CCCCC1 [URB602, biphenyl-3-yl carbamic acid cyclohexyl ester]
effect on Cox-2 activity (cyclooxygenase (Cox)-2): did not affect
effect on DGL activity [4]: did not affect
effect on PLD activity (PLD): did not affect
basal 2-AG levels [2]: significantly increased
anandamide levels [2]: did not modify
2-AG accumulation elicited by ionomycin ([2]; ionomycin 2 μM): enhanced
effect on rat brain FAAH activity (rat brain FAAH): does not affect
EC50 (rat cerebellar membranes): > 100 µM
effect on stress-induced analgesia, URB602 in dorsolateral PAG ([1]; 0.1 nmol microinjection): enhanced
effect on stress-induced analgesia, URB602 in ventrolateral PAG ([1]; 0.1 nmol microinjection): enhanced
basal nociceptive threshold (tail-flick latencies) in absence of stressor [3]: without altering
effect on rat brain MGL activity in vitro (native rat brain MGL): inhibits
IC50 (native rat brain MGL; broken cell preparations, read-out: half-maximal concentration (IC50) for inhibition of MGL): 28 ± 4 µM
mechanism of MGL inhibition (native rat brain MGL; kinetic analyses): non-competitive
Vmax of MGL with URB602 (native rat brain MGL; n=4, without URB602 1814±51): 541±20 nmol-min-mg^−1 protein
effect on PLC activity (phospholipase C (PLC)): did not affect
2-AG content in midbrain fragments vs untreated controls [5, 6]: significantly higher
anandamide levels in midbrain vs untreated controls [5, 6]: identical
2-AG and anandamide concentrations in occipital cortex ([5]; URB602 injection into the PAG): not affected

Cc1c(C(=O)c2cccc3ccccc23)c2cccc3c2n1[C@H](CN1CCOCC1)CO3 [WIN55, 212-2]
stress-induced analgesia in rats made tolerant to the agonist ([1]; rat, in vivo): marked reduction
drug's own antinociceptive effects after repeated daily injections [3]: decrease

CN1CC[C@]23c4c5ccc(O)c4O[C@H]2[C@@H](O)C=C[C@H]3[C@H]1C5 [morphine]
stress-induced analgesia in rats made tolerant to the agonist ([1]; rat, in vivo): normal degree
mean tail-flick latency after morphine, cannabinoid tolerant rats ([3]; morphine 2.5 mg-kg^−1 s.c., rats tolerant to WIN55,212-2, n=6-7): 6.09 ± 1.93 s
mean tail-flick latency after morphine, control rats ([3]; morphine 2.5 mg-kg^−1 s.c., vehicle-treated controls, n=6-7): 5.33 ± 0.21 s
drug's own antinociceptive effects after repeated daily injections [3]: decrease

O=C1CC[C@@]2(O)[C@H]3Cc4ccc(O)c5c4[C@@]2(CCN3CC2CC2)[C@H]1O5 [naltrexone]
effect of antagonist on stress-induced analgesia, systemic ([1]; rat, in vivo, ip): insensitive

Cc1c(C(=O)NN2CCCCC2)nn(-c2ccc(Cl)cc2Cl)c1-c1ccc(Cl)cc1 [rimonabant]
effect of low-dose rimonabant alone on stress analgesia ([1]; 0.2 nmol in PAG): insufficient to reverse
rimonabant effect on MAFP enhancement of stress analgesia ([1]; co-injection, rimonabant 0.2 nmol): blocked
effect of antagonist on stress-induced analgesia, systemic ([1]; i.p., naltrexone 14 mg-kg^−1, rimonabant, AM251, SR144528 5 mg-kg^−1): almost abolished
rimonabant effect on URB602 enhancement of stress analgesia ([1]; local co-administration in PAG, rimonabant 0.2 nmol): prevented
effect on stress-induced analgesia, ventrolateral PAG ([1]; rimonabant 2 nmol): inactive
effect on stress-induced analgesia, dorsolateral PAG ([1]; rimonabant 2 nmol microinjected): significantly reduced
rimonabant effect on URB597 potentiation of stress analgesia ([1]; rimonabant 1 mg-kg^−1 i.p., 0.2 nmol in the PAG): prevented
rimonabant effect on VDM11 enhancement of stress analgesia ([1]; rimonabant 2 mg-kg^−1 i.p.): blocked
effect on stress-induced analgesia, lateral ventricle ([1]; rimonabant 2-10 nmol): ineffective
basal nociceptive threshold (tail-flick latencies) in absence of stressor [3]: does not alter

From patent US20090082435A1, “Methods, Compositions, And Compounds For Modulation Of Monoacylglycerol Lipase, Pain, And Stress-Related Disorders” (The Regents of the University of California, priority 2005, published 2009)
